Measured values published in patent publication US20100204460A1, “NATURAL BRASSINOSTEROIDS FOR USE FOR TREATING HYPERPROLIFERATION, TREATING PROLIFERATIVE DISEASES AND REDUCING ADVERSE EFFECTS OF STEROID DYSFUNCTION IN MAMMALS, PHARMACEUTICAL COMPOSITION AND ITS USE” (priority 2007, published 2010).
“Also recorded” adds a separate entry of the source.

Columns and labels:
LNCaP cells = assay: Western blot of cell cycle and apoptosis related proteins, LNCaP; format: cell-based; conditions: IC50 for 6, 12, 24 h vs untreated control
Description: The cells were seeded in a density 1.6×10^4 cells/cm^2 (LNCaP), 1.4×10^4 cells/cm^2 (DU-145, MDA-MB-468 and MCF-7) using culture medium in 100-mm culture Petri dishes. After reaching of 70-80% confluence, the cells were treated with tested compounds 9 in concentration IC50 that were evaluated by MTT analysis described above. DMSO was used as a vehicle for controls. After 6, 12 and 24 h treatment, the cells were washed with cold PBS and scraped in ice-cold protein extract ion buffer (50 mM HEPES, pH 7.5; 150 mM NaCl; 1 mM EDTA; 2.5 mM EGTA; 10% glycerol; 0.1% Tween 20) with protease and phosphatase inhibitors (25 μL/mL phenylmethanesulphonyl fluoride; 2.5 μL/mL leupeptin; 0.1 mM Na3VO4; 2.5 μL/mL aprotinin; 10 mM β-glycerol-phosphate; 1 mM dithiothreitol). The lysates were collected into microfuge tube and incubated on ice for 1 h. Cells were incubated 60 min at 4° C. under time by time shaking in protein extraction buffer. After centrifugation at 45 000×g for 30 min at 4° C., supernatant was collected, aliquoted, and stored at −80° C. The protein content in the lysates was measured by a Bredford assay (Bio-Rad Laboratories, Hercules, Calif., USA) according to the manufacture's protocol.
For Western blot analysis, equal aliquots of proteins (15-30 μg/well) were loaded on 10% or 12% SDS-PAGE gels and transferred onto nitrocellulose membranes (Amersham Biosciences, Vienna, Austria) by semi-dry electrophoretic transfer. Coloured marker (Rainbow™, Amersham Biosciences, Vienna, Austria) was used as a protein molecular weight standard. The non-specific binding sites were blocked by incubating the blot with 5% (w/v) non-fat dry milk in PBS for 2 h. The blot was incubated overnight in 4° C. with appropriate primary antibody that detects the protein epitope of interest and finally washed in PBS with 0.1% Tween 20 for 1 h. The blot was incubated with the diluted secondary goat anti-mouse IgG-horseradish peroxidase conjugated antibody (dilution 1:6000, Santa Cruz Biotechnology, Santa Cruz, Calif., USA) or goat anti-rabbit IgG-horseradish peroxidase conjugated antibody (dilution 1:2000, DakoCytomation, Glostrup, Denmark) for 45 min in 4° C. The membrane was washed in PBS with 0.1% Tween 20 for 1 h. The proteins were detected using a chemiluminescence detection system (Amersham Biosciences, Vienna, Austria) according to the protocol provided by the manufacturer. Equality of loaded proteins was confirmed by Ponceau S membrane staining (Sigma, St. Louis, Mo., USA) and by detection of anti-tubulin-α or anti-mcm-7 antibodies. The experiments were repeated three times. The protein expressions in treated cells were compared to untreated controls.
Western blot analysis was used to detect changes in apoptosis related protein expression in breast and prostate cancer cell lines. […] This decreased expression of Bid can indicate a cleavage of the protein after treatment by BRs. In DU-145 cell line, expression of pro-apoptotic proteins Bax and Bid was unchanged. […] On the other hand, caspase cleavage was not found in DU-145 cells. Poly-(ADP-ribose) polymerase (PARP) positive expression in controls of prostate cancer cell lines was observed but brassinosteroids had no effect on its expression nor on its degradation within the period 6/12/24 h (FIG. 6B).

[1] = tested on: MCF-7, LNCaP and DU-145 cancer cell lines; assay: MTT cytotoxicity test, summary over cell lines; format: cell-based; conditions: over cell lines except MDA-MB-468; 24 h; read-out: IC50 value around which the cell lines move (MTT)
Description: Stock solutions ([…]) were prepared by dissolving relevant quantity of substance in DMSO cultivation media (DMEM, RPMI 1640, F-12 medium), fetal bovine serum (FBS), L-glutamine, penicillin, and streptomycin were purchased from Sigma (MO, USA). 3-(4,5-Dimethylthiazol-2-yl)-2,5-diphenyltetrazolium bromide (MTT) was from Serva Electrophoresis (Heidelberg, Germany). Monoclonal mouse anti-bromodeoxyuridine (BrdU) intibody was obtained from DakoCytomation (Glostrup, Denmark). Calcein AM was obtained from PAA Laboratories GmbH (Pasching, Austria). […]
Cell viability in this case was assessed by 3-(4,5-dimethylthiozol-2-yl)-2,5-diphenyltetrazolium bromide (MTT) to determine IC50 concentrations of studied agents as described previously. […] The absorbance was read using an ELISA reader Labsystem Multiscan RC at 570 nm. […]

| Structure (SMILES) | MDM-2 expression (Western blot) (LNCaP cells) | anti-apoptotic protein Bcl-2 expression (Western blot) (LNCaP cells) | caspase-3 cleavage / activation (Western blot) (LNCaP cells) | p21Waf1/Cip1 expression (Western blot) (LNCaP cells) | p27Kip1 expression (Western blot) (LNCaP cells) | p53 expression (Western blot) (LNCaP cells) | IC50 [1] [µM] | pro-apoptotic Bax level (Western blot) (LNCaP cells) |
| --- | --- | --- | --- | --- | --- | --- | --- | --- |
| CC(C)[C@@H](C)[C@@H](O)[C@H](O)[C@@H](C)[C@H]1CC[C@H]2[C@@H]3COC(=O)[C@H]4C[C@H](O)[C@H](O)C[C@]4(C)[C@H]3CC[C@]12C [Brassinosteroid 6, 24-Epibrassinolide] | unchanged | decreased after treatment with 9 (6, 12 and 24 h) or 6 (6 and 24 h) | activation of caspase-3 after 24 h; also recorded: degradation of procaspase-3 into cleaved fragments was detected after all time points of treatment with 9 and after 24 h treatment with 6 | decreased expression of p21^Waf1/Cip1 after 6 and 24 h | decreased expression of p21^Waf1/Cip1 after 6 and 24 h treatment and p27^Kip1 protein expression after 6 and 12 h | decreased expression of p53 after brassinosteroids 9 or 6 treatment was found after 12 and 24 h | ~61.7 | – |
| CC[C@@H](C(C)C)[C@@H](O)[C@H](O)[C@@H](C)[C@H]1CC[C@H]2[C@@H]3CC(=O)[C@H]4C[C@H](O)[C@H](O)C[C@]4(C)[C@H]3CC[C@]12C [Brassinosteroid 9, 28-Homocastasterone] | increased after 9 treatment (6 h) | decreased after treatment with 9 (6, 12 and 24 h); also recorded: significant decrease in the levels of anti-apoptotic Bcl-2 protein | induced degradation of caspase-3 into its cleaved fragments after all time points (6, 12 and 24 h); also recorded: degradation of procaspase-3 into cleaved fragments was detected after all time points | decreased level of p21^Waf1/Cip1 after 12 h | increased level of p27^Kip1 after 24 h | decreased expression of p53 after brassinosteroids 9 or 6 treatment was found after 12 and 24 h | ~43.3 | increased level of pro-apoptotic Bax after the 9 treatment after 6 and 12 h; also recorded: increase in the pro-apoptotic Bax protein |
